Results as given in article PMC7672424 (Nucleic Acids Research, 2020).

What follows are compounds tested on FAM-TTA45-TAMRA (DNA, G4) GGGTTAGGGTTAGGGTTAGGGTTAGGGTTAGGGTTAGGGTTAGGG (assay: FRET melting). Conditions: 100 mM K+ (KCl) plus 10 mM potassium phosphate; pH 7.0; 20 µM compound, 0.5 µM DNA.

`COc1ccc(Cn2cc3c(-c4ccc5c(c4)OCO5)nnc-3c3cc4c(cc32)OCO4)cc1OC` [Compound 31] showed a ΔTm of 15.15 ± 0.23 °C.

Same assay, conditions: 100 mM K+ (KCl) plus 10 mM potassium phosphate; pH 7.0; 50 µM compound, 0.5 µM DNA

Compared with `CCC(Sc1nc2cc3c(cc2c(=O)n1Cc1ccc(C(=O)NCc2ccc4c(c2)OCO4)cc1)OCO3)C(=O)N1CCOCC1` (stereo not shown) [Compound 12], `CCCNC(=O)Cn1nc(-c2ccc(CC)cc2)c2cnc3cc4c(cc3c21)OCCO4` is lower in ΔTm: 5.11 °C for the first, 1.12 °C for the second.

Going from `CN(Cc1ccc2c(c1)OCO2)C(=O)c1nn(C)c2c1CN(C(=O)C1=NOC(c3cccs3)C1)CC2` (stereo not shown) to `Cc1cc(C)n(-c2nnc3c4ccccc4n(CC(=O)NCCc4nc5ccccc5[nH]4)c3n2)n1`, the ΔTm rises from 0.70 °C to 2.17 °C.

First: C(=N\Nc1nnc2c(n1)[nH]c1ccccc12)/c1c2ccccc2cc2ccccc12
Second: Oc1ccccc1/C=N/Nc1nnc2c3ccccc3n(Cc3ccccc3)c2n1
The ΔTm of the first is higher: 1.54 °C for the first, 1.53 °C for the second.

Going from `COc1cc2c(-c3ccccc3[N+](=O)[O-])nc3c(c(-c4ccccc4)nn3-c3ccccc3)c2cc1OC` to `CN1CCN(CCCSc2nnc3c(n2)[nH]c2ccccc23)CC1` [Compound 3], the ΔTm rises from 3.85 °C to 9.04 °C.

These compounds were tested on TTA45 (assay: FRET melting assay, stabilization of TTA45). Conditions: 0.5 µM TTA45; 20 µM compounds; 10 mM K2HPO4/KH2PO4, 100 mM KCl, pH 7.0.
Type: binding, human
Protocol: Based on the conventional G-quadruplex ligand design ([46]), ∼400 compounds were selected from Chinese National Compound library of Peking University (PKU-CNCL). These compounds were evaluated for their ability to bind to TTA45 by Fluorescence Resonance Energy Transfer (FRET) assay (Supplementary Tables S1 and S2) ([47]). […] Compounds 21-38 were purchased to study their binding with TTA45 by FRET (Supplementary Table S3). […] page 4: Table S2. Stabilization of TTA45 as determined by FRET assays (continued). Compounds Structures ΔTm/°C Compounds Structures ΔTm/°C 23 10.3 25 14.6 […] OH 24 […] KCl, pH 7.0) was determined by FRET procedure, and Tm/°C were derived by their difference. The concentration of compounds 21-26 were 20 μM , and other compounds were 50 μM. FRET assay was carried out on the Real-Time PCR 3.2 machine (Analytik Jena, Germany). The total reaction volume was 20 μL with 0.5 μM of oligonucleotide labelled with FAM at the 3' end and TAMRA at 5' end in 10 mM K2HPO4/KH2PO4 (pH 7.0) containing 100 mM KCl. […] Then compounds with various concentrations were added into the DNA samples.

First: Fc1ccc(-n2nc(-c3ccccc3)c3cnc4cc5c(cc4c32)OCO5)cc1 [Compound 38]
Second: COc1ccc(-c2nn(-c3ccc(F)cc3)c3c2cnc2cc4c(cc23)OCO4)cc1 [Compound 37]
The “ΔTm/°C, TTA45 stabilization by FRET (Table S3)” value of the first is lower: 0.30 ± 0.82 °C for the first, 2.19 ± 0.91 °C for the second.

Going from `CCOc1ccc(-c2nnc3c4cc5c(cc4[nH]cc2-3)OCCO5)cc1` [Compound 34] to `COc1ccc(Cn2cc3c(-c4ccc5c(c4)OCO5)nnc-3c3cc4c(cc32)OCO4)cc1OC` [Compound 31], the “ΔTm/°C, TTA45 stabilization by FRET (Table S3)” value rises from 3.55 ± 1.20 °C to 15.15 ± 0.23 °C.

Same assay, conditions: 0.5 µM TTA45; compounds 50 µM; 10 mM K2HPO4/KH2PO4, 100 mM KCl, pH 7.0

Going from `CCC(Sc1nc2cc3c(cc2c(=O)n1Cc1ccc(C(=O)NCc2ccc4c(c2)OCO4)cc1)OCO3)C(=O)N1CCOCC1` (stereo not shown) [Compound 12] to `Cc1ccc(Cn2cc(C(=O)c3ccc4c(c3)OCO4)c(=O)c3cc4c(cc32)OCO4)cc1` [Compound 15], the “ΔTm/°C, stabilization of TTA45 by FRET (Table S2)” value falls from 5.11 °C to 0.70 °C.

First: Oc1ccccc1C=NNc1nnc2c3ccccc3n(Cc3ccccc3)c2n1 [Compound 5]
Second: CN1CCN(CCCSc2nnc3c(n2)[nH]c2ccccc23)CC1 [Compound 3]
The “ΔTm/°C, stabilization of TTA45 by FRET (Table S2)” value of the first is lower: 1.53 °C for the first, 9.04 °C for the second.

Same assay, conditions: FRET assay

`Fc1ccc(-n2nc(-c3ccccc3)c3cnc4cc5c(cc4c32)OCO5)cc1` [Compound 38] was tested, and the “stabilization of TTA45 (in words, SAR)” value was “negligible stabilization”.
`COc1ccc(-c2nn(-c3ccc(F)cc3)c3c2cnc2cc4c(cc23)OCO4)cc1` [Compound 37] was tested, and the “stabilization of TTA45 (in words, SAR)” value was “negligible stabilization”.
